What was measured:
[1] = tested on: HepG2 cells; test: LD fluorescence staining assay (Oil Red O / Hoechst); type: cell-based, human; settings: 200 μM, HepG2 loaded with OA, Oil Red O and Hoechst 33,342
Procedure: LD fluorescence staining assay: The staining was performed with modifications based on our previous report. HepG2 cells were seeded in 35 mm glass bottom dishes at 4.0 × 10^5/plate. After 24 h of incubation, OA and all samples were processed for 24 h. Oil Red O staining was performed, then the Hoechst reagent solution mixed with PBS was added and incubated in the dark for 25 min. Images were then captured using a BZ-9000 fluorescence microscope (Keyence Co., Ltd., Osaka, Japan).

[2] = tested on: diacylglycerol O-acyltransferase 1 (DGAT1); test: Gene expression, real-time PCR; type: cell-based, human; settings: HepG2 + 0.25 mM OA, 200 and 400 μM compound, 24 h, normalized to GAPDH
Procedure: (§1) To better understand how the supplementation of compounds 2 and 4 during LDA in HepG2 cells affects lipolysis and lipogenesis, we performed gene expression analysis using real-time PCR under the following conditions. Briefly, HepG2 cells (2.0 × 10^5/well) were seeded in 24-well plates (n = 6 per treatment). After 24 h, the cells were treated with PBS, 0.25 mM OA only, 0.25 mM OA plus 200 and 400 μM compound 2, or 0.25 mM OA plus 200 and 400 μM compound 4. After another 24 h, RNA extraction and complementary DNA synthesis were performed, according to the manufacturer’s instructions and a previous study. The sequences of the primers used are shown in the Supplementary Materials, Table S1: adipose triglyceride lipase (ATGL), diacylglycerol O-acyltransferase 1 (DGAT1), sterol regulatory element-binding protein 1 (SREBP1), fatty acid synthase (FASN), stearoyl-CoA desaturase 1 (SCD1), and glyceraldehyde-3-phosphate dehydrogenase (GAPDH). PCR was performed using a CFX 96 Real-Time PCR Detection System (Bio-Rad Laboratories Inc., Hercules, CA, USA) under the following conditions: 95 °C for 30 s, followed by 40 cycles at 95 °C for 5 s, 60 °C for 5 s, and 72 °C for 10 s. All gene expression levels were analyzed using the ΔΔCt method and normalized to GAPDH. Data were represented as relative expression based on that of the control group.

[3] = tested on: stearoyl-CoA desaturase 1 (SCD1); test: Gene expression, real-time PCR; type: cell-based, human; settings: HepG2 + 0.25 mM OA, 200 and 400 μM compound, 24 h, normalized to GAPDH
Procedure: as §1

[4] = tested on: adipose triglyceride lipase (ATGL); test: Gene expression, real-time PCR; type: cell-based, human; settings: HepG2 + 0.25 mM OA, 200 and 400 μM compound, 24 h, normalized to GAPDH
Procedure: as §1

[5] = tested on: sterol regulatory element-binding protein 1 (SREBP1); test: Gene expression, real-time PCR; type: cell-based, human; settings: HepG2 + 0.25 mM OA, 200 and 400 μM compound, 24 h, normalized to GAPDH
Procedure: as §1

[6] = tested on: fatty acid synthase (FASN); test: Gene expression, real-time PCR; type: cell-based, human; settings: HepG2 + 0.25 mM OA, 200 and 400 μM compound, 24 h, normalized to GAPDH
Procedure: as §1

[7] = tested on: HepG2 cells; test: Real-time LDAI monitoring (live imaging); type: cell-based, human; settings: HepG2 in DMEM with oleic acid, within 20 h
Procedure: Real-time LDAI monitoring: Morphological changes in HepG2 cells and LDs induced by treatment with 4 were monitored using a Nikon, Hamamatsu Photonics/Ti-E, CCD Camera for 20 h. The cell viability of the control cells was examined by staining with acridine orange (AO)/ethidium bromide (EB) dyes at the end of the experiment (20 h) (Supplementary Materials, Figure S12).

[8] = tested on: nuclear factor erythroid 2-related factor 2 (Nrf2); settings: hepatocytes; ref "We have reported"; cited from earlier work
[9] = tested on: cultured human hepatocytes (C3A); design: method as in earlier work; settings: ref "We have reported"; cited from earlier work

| SMILES | LDs in fluorescence image [1] | DGAT1 gene expression [2] | SCD1 gene expression [3] | ATGL gene expression [4] | SREBP1 gene expression [5] | FASN gene expression [6] | Accumulated neutral LDs in real-time imaging [7] | Nrf2 activation [8] | Cytotoxicity [9] | Protection from oxidative damage by AAPH [9] |
| --- | --- | --- | --- | --- | --- | --- | --- | --- | --- | --- |
| O=C(O)C1Cc2c([nH]c3ccccc23)C(c2ccc(CO)o2)N1 (stereo not shown) [Compound 2, 1,2,3,4-tetrahydro-1-(5-(hydroxymethyl)-2-furanyl)-9H-pyrido [3,4-b]indole-3-carboxylic acid] | significantly inhibited | no change | did not induce a significant reduction | upregulated | significantly downregulated | significantly downregulated |  |  |  |  |
| O=C(O)c1cc2c([nH]c3ccccc32)c(-c2ccc(CO)o2)n1 [Compound 4, flazin] | significantly inhibited | no change | strongly downregulated | upregulated | strongly downregulated | strongly downregulated | significantly reduced in number | activated | without showing any significant cytotoxicity | protects |
